Test [1] relates to hTERT/shp16 transduced ER^pos HBEC. The experiment in a line: qRT-PCR of ESR and PGR after 7 days exposure to inhibitors. The settings on record: RepSox alone versus combination with SB431542. It is filed as cell-based, human. The protocol: FIG. 12: PCR analysis of human estrogen receptor signaling. (a) Using a commercially available PCR array containing 84 genes involved in ER activation and its response, qRT-PCR was conducted with RNA samples of ER^pos HBEC with or without TGFβ[…]. Among them, 20 genes (some of which are labeled in the plot) were highly expressed in the presence of TGFβ[…]. […] The black line indicates no difference between samples, while the pink lines indicate a two-fold change in gene expression. Two biological replicates were run I qRT-PCT with duplicates of each. […] Bars indicate the fold difference of the relative gene expression and error bars represent SD of triplicates in qPCR.
On the technique in general: Quantitative PCR measures a nucleic acid by following its amplification.

Test [2] concerns CD166^high-derived cells. The experiment in a line: Long-term growth / population doublings on passaging. It is filed as cell-based, human. The settings on record: in the absence of RepSox (SB431542 alone). The text has this:
For growth experiments cultures initially seeded at 6400 cells/cm^2 and grown for fifteen days in primary culture in TGFβR2i or with SB431542 alone. Next, the cultures were trypsinized and seeded at 4000 cells/cm^2 in triplicate cultures, and subsequently passaged at the same density before the cultures reached confluency. Parallel cultures were stained to assess Ks20.8, ER and PR expression status. The number of cells was quantified manually using a counting chamber. […] Population doublings were calculated as n=3.32(log UCY—log 1)+X, where n=population doubling, UCY=cell yield, 1=inoculum number, X=population doubling rate of inoculum. To determine whether continuous TGFβR2i culture was needed to sustain ER and K8 expression, cells in the sixth passage were switched to FAD2 and the number of ER^pos cells (n=3×100) was compared to parallel TGFβR2i cultures at day three and five.

Test [3] deals with CD166^high cells. Briefly: Induction of ER, K8 and luminal genes by TGF-β signaling inhibitors (qPCR, Western blotting, staining). It is filed as cell-based, human. The protocol:
To test the specificity of the effect of TGFβ[…], in some experiments SB431542 alone or the double concentration of SB431542 was used instead of TGFβ[…] or RepSox was replaced by another TGF-β type I receptor activin receptor-like kinase ALKS inhibitor, SD208 (1 μM, Tocris Bioscience). The vehicle, dimethyl sulfoxide (Sigma Aldrich), was included in all experiments added in appropriate concentrations for control cultures. Gentamycin (50 μg/ml, Biological Industries) was added to the cultures for one week after sorting, otherwise antibiotics were not included. […] In order to quantify cDNA concentration represented by cycle threshold (Ct) values, Cts were determined at the initial period of exponential amplification in triplicates and the different PCR runs were adjusted by inter-run calibrators (Bio-Rad CFX manager 3.0). Each gene expression level was to the mean of four reference gene expressions (GAPDH, HPRT1, TBP, and TFRC). The qRT-PCR data were then visualized as a heatmap using the statistical programi R or as a bar graph using the values calculated by the 2^-ΔΔCt method (Livak et al., 2001). […] Whole cell lysates were prepared for extraction by incubation in RIPA lysis buffer for 30 min at 4° C. with protease inhibitor cocktail (P8340, Sigma) and phosphatase inhibitor cocktail (Sigma, P5726). Protein were separated by a 4 12% Novex® Bis-Tris pre-cast polyacrylamide gradient gel (Life technologies) and transferred to a PVDF membrane using iBlot® dry blotting system (Life technologies). Molecular weight was indicated by using a pre-stained protein ladder (SM0671, Fermentas). […] Secondary antibodies conjugated with horseradish peroxidase (DAKO) were incubated for one hour at room temperature. Western blots were visualized using enhanced chemiluminescence solution ([…] 32106, Thermo Scientific) and a chemi-luminescence imager (Amersham Image 600, GE Healthcare life sciences).

The subject of test [4] is ER^pos cells. Briefly: PR protein staining after estrogen. In kind it is cell-based, human. The settings on record: 10^−8 M β-estradiol, absence of EGF. The protocol: Cryostat sections, smears of sorted cells and monolayer cultures were prepared and stained by immunoperoxidase or immunofluorescence as previously described (Petersen et al. 1988, Villadsen et al. 2007, Rønnov-Jessen et al. 1992). Cellular smears for ER staining were fixed in 10% formalin for 10 min, followed by 5 min in ice-cold methanol:acetone (1:1), and incubated over night with anti-ER (Sp1, 1:10) at 4° C., followed by incubation for 30 min with Alexa Fluor 568 goat-anti rabbit IgG (Invitrogen). […] Immunofluorescence and peroxidase stainings were evaluated, quantified and photographed using a laser-scanning microscope (LSM 510; Carl Zeiss Microlmaging, Inc.) and brightfield microscopes (Laborlux S or DM5500B, Leica), respectively. For quantification of ER, K8, K19 and p63, nuclei were counterstained with hematoxylin and counted in randomly selected fields using an ocular grid and given as the percentage of stained cells of a total of 1000 cells evaluated with a 25 times objective.
As an ultimate test for a physiologically relevant ER expression we decided to assess the effect of added cognate ligand, i. e. estrogen (β-estradiol). […] Early passage cultures were exposed to estrogen or vehicle, and after four days the cell number was quantified. […]

Test [5] concerns luminal cells. The experiment in a line: Screening assay for normal morphogenic behavior (co-culture on fibroblast feeder in BBMYAB). The settings on record: E2 10^−8 M. In kind it is cell-based, human. The text has this:
Within two weeks luminal cells grow up from single cells to form polarized structures, either comprising luminal cells only or luminal cells surrounded by a layer of myoepithelial cells, reminiscent of their organization in vivo.

Test [6] relates to ER^pos cells. Briefly: Proliferative response to estrogen without EGF. It is filed as cell-based, human. The settings on record: early passage cultures, 10^−8 M β-estradiol versus vehicle, four days. As for the experimental part: To test the proliferative response to estrogen, ER^pos cells in TGFβR2i culture were seeded in second passage with 4000 cells/cm^2 in TGFβR2i with 25 μM RepSox and without EGF, supplemented with estrogen (10^−8 M, β-estradiol, E2758, Sigma-Aldrich) and cultured for up to 13 days with medium change every other day. A primary culture from another biopsy (P959) was cultured 27 days in the presence of estrogen and without EGF before splitting. The cells were passaged at 4000 cells/cm^2 in triplicate cultures with estrogen or vehicle (96% ethanol). At day four the cultures were trypsinized and quantified using a counting chamber.

Test [7] relates to ER^pos cells. Briefly: Response to estrogen on confluent fibroblast feeders. In kind it is cell-based, human. The settings on record: on confluent fibroblast feeders in TGFβR2i, day eight. The protocol: To assess whether the response of ER^pos cells to estrogen was modulated by the presence of fibroblasts, second or third passage ER^pos cells, with or without omission of EGF in the previous passage, were plated at a density of 5600 cells/cm^2 on confluent fibroblast feeders in triplicate culture. The following day, the culture medium was switched to TGFβR2i with estrogen or vehicle. […] At day eight, the cultures were trypsinized and the total cell number was quantified. Whether a continuous lack of EGF influenced the response to estrogen was tested in a similar set-up, where EGF was omitted from the medium during the entire experimental period.

Test [8] relates to ER^pos cells. Briefly: qRT-PCR of PGR and GREB1 after estrogen. It is filed as cell-based, human. Particulars: long-term exposure to estrogen.
The subject of test [9] is ER and PR. The experiment in a line: Substitution of EGF with amphiregulin in the culture medium. It is filed as cell-based. Particulars: EGF substituted with amphiregulin.

Experimental findings from patent US20180135010A1, “ISOLATION AND LONG-TERM CULTURING OF ESTROGEN RECEPTOR-POSITIVE HUMAN BREAST EPITHELIAL CELLS” (University of Copenhagen, priority 2015, published 2018) are described below.

As for `Cc1cccc(-c2[nH]ncc2-c2ccc3ncccc3n2)n1` [RepSox], the “induction of ER or PR” value in test [1] is on record as “not as effective in inducing ER or PR as in combination with SB431542”. In addition, the expansion on passaging result in test [2] is “could not be expanded beyond fourth passage”.
For the molecule `NC(=O)c1ccc(-c2nc(-c3ccc4c(c3)OCO4)c(-c3ccccn3)[nH]2)cc1` [SB431542], the “ER expression at the mRNA level” value in test [3] (SB431542 alone in FAD2) is recorded as “capable of inducing increased expression of ER at the mRNA level”. Moreover, the “induction of K8 and ER” value in test [3] (twice the concentration of SB431542 instead of TGFβR2i) was “insufficient to induce K8 and ER”.
For `Fc1ccc(Cl)cc1-c1nc(Nc2ccncc2)c2nccnc2n1` [SD208], in test [3] (RepSox replaced by SD208), the “induction of K8 and ER” value is “insufficient to induce K8 and ER”.
As for β-estradiol [estrogen], the PR protein expression result in test [4] is “higher focal expression of PR protein”. In test [5], the epithelial colony size result is on record as “larger epithelial colonied are formed”; the “estrogen receptor and progesterone receptor expression” value is “down-regulation of its receptor and induction of the downstream progesterone receptor”. For the same molecule, the cell number entry in test [6] is “significantly higher cell numbers”. For the same molecule, in test [7], the cell number result is “significant increase in cell number”. Also, in [8], the “expression of PGR and GREB1” value is “increased expression of PGR and GREB1”.

B1: amphiregulin: EGF-like compound substituted for EGF in the culture medium (protein, UniProt P15514 101-187, looked up)
Amphiregulin: SVRVEQVVKPPQNKTESENTSDKPKRKKKGGKNGKNRRNRKKKNPCNAEFQNFCIHGECKYIEHLEAVTCKCQQEYFGERCGEKSMK
modifications: Amphiregulin
notes: EGF-like compound substituted for EGF in the culture medium
Regarding B1, the “level of ER and PR” value in test [9] is “a higher level of ER and PR is observed”.
